Experimental data published in US20230167094A1, “H4 ANTAGONIST COMPOUNDS” (Heptares Therapeutics Limited, priority 2020, published 2023).

Columns and labels:
hERG = hERG (Homo sapiens, UniProt Q12809); assay: hERG assay (QPatch automated patch clamp, CHO cells); type: cell-based; details: CHO cells stably expressing hERG; 1, 3, 10 and 30 μM; tail current; room temperature; read-out: hERG pIC50 (converted)
Method: All experiments were performed on the QPatch automated patch clamp platform.
Series resistance (4-15 MΩ) was compensated by >80%.

human H4 receptor = biological target: T1, human H4 receptor (Homo sapiens, UniProt Q9H3N8); assay: H4 Antagonist Functional Dynamic Mass Redistribution Assay; type: cell-based; details: HEKf cells expressing human H4 receptor; antagonist mode vs histamine EC80; pKb by Cheng-Prusoff; read-out: Human H4 DMR fpKb (converted)
T1 construct: expressed in transfected cells; host or cells: HEKf cells infected with baculovirus
Method: H4 Antagonist Functional Dynamic Mass Redistribution Assay
HEKf cells were infected using baculovirus expressing the human H4 receptor, plated into fibronectin-coated EPIC plates at a density of 10,000 cells/well and incubated overnight at 37° C. The medium on cells was changed to […] HBSS with 20 mM HEPES per well and 30 nL DMSO were added per well by LabCyte ECHO acoustic dispensing. Following 2 h equilibration at room temperature, 30 nL of H4 ligands prepared in DMSO were stamped by LabCyte ECHO acoustic dispensing into seeded EPIC plates and cellular dynamic mass redistribution was monitored using a Corning EPIC plate reader. Following 45 min measurement, 30 nL/well of histamine EC80 was added and monitored to obtain antagonist assay data. Maximum baseline-corrected responses in pm were used to generate concentration response curves. EC50 values were generated using a 4-parameter logistical fit equation to quantify agonist potencies. Functional antagonist affinity values were generated using the Cheng-Prusoff equation to calculate a pKb value using the antagonist assay data.

Chain of hERG (Q12809 whole entry): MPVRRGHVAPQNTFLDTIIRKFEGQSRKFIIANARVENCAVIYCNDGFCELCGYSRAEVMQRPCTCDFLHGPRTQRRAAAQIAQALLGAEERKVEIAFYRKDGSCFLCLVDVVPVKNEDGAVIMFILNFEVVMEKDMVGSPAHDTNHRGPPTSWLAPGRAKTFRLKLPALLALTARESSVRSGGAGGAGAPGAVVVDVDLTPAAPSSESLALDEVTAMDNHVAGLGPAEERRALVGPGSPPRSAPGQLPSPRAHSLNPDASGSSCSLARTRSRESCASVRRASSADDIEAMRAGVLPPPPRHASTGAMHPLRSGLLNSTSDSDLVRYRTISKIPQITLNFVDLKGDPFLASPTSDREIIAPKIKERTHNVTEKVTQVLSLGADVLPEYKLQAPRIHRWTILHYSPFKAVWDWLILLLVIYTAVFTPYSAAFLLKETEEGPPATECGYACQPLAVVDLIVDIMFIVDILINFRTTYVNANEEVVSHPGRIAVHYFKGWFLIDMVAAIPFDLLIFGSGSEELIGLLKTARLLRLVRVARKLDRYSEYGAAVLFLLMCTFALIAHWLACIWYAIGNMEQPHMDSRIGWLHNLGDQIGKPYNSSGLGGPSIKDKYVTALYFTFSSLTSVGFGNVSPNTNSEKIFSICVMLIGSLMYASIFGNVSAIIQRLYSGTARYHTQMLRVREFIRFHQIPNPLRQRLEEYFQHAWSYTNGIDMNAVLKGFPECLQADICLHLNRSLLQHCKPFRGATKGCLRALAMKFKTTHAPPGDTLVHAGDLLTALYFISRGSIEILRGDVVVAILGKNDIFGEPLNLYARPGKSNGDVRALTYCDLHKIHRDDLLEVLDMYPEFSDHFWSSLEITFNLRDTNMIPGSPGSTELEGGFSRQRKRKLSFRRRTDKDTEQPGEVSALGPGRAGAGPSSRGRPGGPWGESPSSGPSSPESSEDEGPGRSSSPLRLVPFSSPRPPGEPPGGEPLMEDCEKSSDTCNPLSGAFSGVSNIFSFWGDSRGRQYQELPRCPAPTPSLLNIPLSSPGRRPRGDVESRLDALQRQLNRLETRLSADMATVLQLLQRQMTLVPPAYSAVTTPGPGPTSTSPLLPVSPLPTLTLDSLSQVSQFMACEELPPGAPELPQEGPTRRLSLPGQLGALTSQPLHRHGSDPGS

Row | Kb (human H4 receptor) [nM] | SMILES | IC50 (hERG) [nM]
1 | 3.98 | CNC1CN(c2cc(-c3cc(C)[nH]n3)nc(N)n2)C1 [Example 35, 4-(5-Methyl-1H-pyrazol-3-yl)-6-(3-(methylamino)azetidin-1-yl)pyrimidin-2-amine] | > 31600
2 | 5.01 | CNC1CN(c2cc(-c3cn[nH]c3)nc(N)n2)C1 [Example 38, 4-(3-(Methylamino)azetidin-1-yl)-6-(1H-pyrazol-4-yl)pyrimidin-2-amine] | > 31600
3 | 7.94 | CNC1CN(c2cc(-c3nn(C)cc3C)nc(N)n2)C1 [Example 8, 4-(1,4-Dimethyl-1H-pyrazol-3-yl)-6-(3-(methylamino)azetidin-1-yl)pyrimidin-2-amine] | 23400
4 | 1.26 | CNC1CN(c2cc(-c3cnn(C(F)F)c3)nc(N)n2)C1 [Example 1, 4-(1-(Difluoromethyl)-1H-pyrazol-4-yl)-6-(3-(methylamino)azetidin-1-yl)pyrimidin-2-amine] | > 100000
5 | 2.51 | CCn1ncc(-c2cc(N3CC(NC)C3)nc(N)n2)c1C [Example 21, 4-(1-Ethyl-5-methyl-1H-pyrazol-4-yl)-6-(3-(methylamino)azetidin-1-yl)pyrimidin-2-amine] | > 100000
6 | 3.98 | CCn1cc(-c2cc(N3CC(NC)C3)nc(N)n2)cn1 [Example 3, 4-(1-Ethyl-1H-pyrazol-4-yl)-6-(3-(methylamino)azetidin-1-yl)pyrimidin-2-amine] | > 100000
7 | 7.94 | CNC1CN(c2cc(-c3cnn(C)c3Cl)nc(N)n2)C1 [Example 15, 4-(5-Chloro-1-methyl-1H-pyrazol-4-yl)-6-(3-(methylamino)azetidin-1-yl)pyrimidin-2-amine] | > 100000
8 | 12.6 | Nc1nc(-c2cnn(C(F)(F)F)c2)cc(N2CC(N)C2)n1 [Example 6, 4-(3-Aminoazetidin-1-yl)-6-(1-(trifluoromethyl)-1H-pyrazol-4-yl)pyrimidin-2-amine] | > 100000
9 | 15.8 | CNC1CN(c2cc(-c3cnn(CC(F)(F)F)c3)nc(N)n2)C1 [Example 2, 4-(3-(Methylamino)azetidin-1-yl)-6-(1-(2,2,2-trifluoroethyl)-1H-pyrazol-4-yl)pyrimidin-2-amine] | > 100000
